According to ChEMBL document CHEMBL5725203, “Quinazolinone compounds and derivatives thereof” (2016):
Each block holds one compound with its values, some of them ahead of it.

Legend:
[1] = target: Poly [ADP-ribose] polymerase 1 (Homo sapiens, UniProt P09874); assay: (§1) Biochemical Assay: PARP1 biochemical assay was purchased as a kit from Trevigen (cat.#4676-096-K) and used per manufacturers recommendations.PARP2 biochemical assay was purchased as a kit from BPS (cat.#80552) and used per manufacturers recommendations.
[2] = target: Poly [ADP-ribose] polymerase 2 (Homo sapiens, UniProt Q9UGN5); assay: as §1
Chain of Poly [ADP-ribose] polymerase 2 (Q9UGN5 whole entry): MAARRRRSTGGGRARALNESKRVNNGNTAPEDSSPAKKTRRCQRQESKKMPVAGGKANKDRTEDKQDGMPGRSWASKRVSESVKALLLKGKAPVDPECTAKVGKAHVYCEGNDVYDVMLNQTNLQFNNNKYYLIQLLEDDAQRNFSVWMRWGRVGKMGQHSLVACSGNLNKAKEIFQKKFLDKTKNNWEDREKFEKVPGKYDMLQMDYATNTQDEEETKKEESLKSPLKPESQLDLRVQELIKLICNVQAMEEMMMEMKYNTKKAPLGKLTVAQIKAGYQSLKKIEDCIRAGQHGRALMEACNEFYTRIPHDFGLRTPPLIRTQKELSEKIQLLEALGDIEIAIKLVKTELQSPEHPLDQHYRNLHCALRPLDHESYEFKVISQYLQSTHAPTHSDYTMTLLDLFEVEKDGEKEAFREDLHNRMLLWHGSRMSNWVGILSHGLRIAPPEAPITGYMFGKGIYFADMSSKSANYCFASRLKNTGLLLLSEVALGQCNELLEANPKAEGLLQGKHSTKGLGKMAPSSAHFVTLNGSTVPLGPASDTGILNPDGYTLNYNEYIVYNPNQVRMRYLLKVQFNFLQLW

Chain of Poly [ADP-ribose] polymerase 1 (P09874 whole entry): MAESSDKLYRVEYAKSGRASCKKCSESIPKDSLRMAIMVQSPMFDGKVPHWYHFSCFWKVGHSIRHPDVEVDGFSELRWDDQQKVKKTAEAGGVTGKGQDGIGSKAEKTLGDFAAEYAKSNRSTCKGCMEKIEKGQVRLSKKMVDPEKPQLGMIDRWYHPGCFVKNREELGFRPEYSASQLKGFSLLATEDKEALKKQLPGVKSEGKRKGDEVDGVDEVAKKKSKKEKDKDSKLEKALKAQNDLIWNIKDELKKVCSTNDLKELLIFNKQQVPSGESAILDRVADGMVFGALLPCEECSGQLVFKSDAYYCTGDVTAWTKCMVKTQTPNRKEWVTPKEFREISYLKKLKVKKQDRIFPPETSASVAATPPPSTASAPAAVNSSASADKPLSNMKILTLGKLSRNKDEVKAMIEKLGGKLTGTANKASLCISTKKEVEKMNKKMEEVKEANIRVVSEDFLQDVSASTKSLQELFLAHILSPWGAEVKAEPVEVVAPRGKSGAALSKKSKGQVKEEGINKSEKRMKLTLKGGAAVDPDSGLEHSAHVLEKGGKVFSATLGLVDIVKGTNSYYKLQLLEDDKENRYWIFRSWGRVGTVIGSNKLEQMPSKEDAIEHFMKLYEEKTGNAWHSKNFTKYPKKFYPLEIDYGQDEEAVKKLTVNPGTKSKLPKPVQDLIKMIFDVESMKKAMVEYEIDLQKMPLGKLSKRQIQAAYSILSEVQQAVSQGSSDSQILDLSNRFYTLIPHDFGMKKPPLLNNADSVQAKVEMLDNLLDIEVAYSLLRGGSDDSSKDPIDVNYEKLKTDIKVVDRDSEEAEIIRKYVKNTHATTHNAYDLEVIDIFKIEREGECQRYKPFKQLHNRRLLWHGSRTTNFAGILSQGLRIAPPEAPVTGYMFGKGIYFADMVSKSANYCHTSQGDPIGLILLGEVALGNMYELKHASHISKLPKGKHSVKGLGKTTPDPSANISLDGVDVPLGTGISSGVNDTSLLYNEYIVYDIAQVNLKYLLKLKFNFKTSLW

Structure (SMILES): O=C(CCSc1nc2ccccc2c(=O)[nH]1)N[C@H]1CC[C@H](c2nnc(-c3ccncc3)o2)CC1
IC50 [1]: 10.2 µM
IC50 [2]: 3.02 µM

Structure (SMILES): O=C(CCCc1nc2ccccc2c(=O)[nH]1)N[C@H]1CC[C@H](Oc2ccccc2)C1
IC50 [1]: 1.29 µM
IC50 [2]: 0.893 µM

Structure (SMILES): O=C(CCc1cc(=O)n2ccccc2n1)N[C@H]1CC[C@H](c2nnc(-c3ccccc3)o2)CC1
IC50 [1]: > 85 µM

Structure (SMILES): O=C1Nc2cc(Cl)ccc2C1C1CCN(C(=O)CCCc2nc3ccccc3c(=O)[nH]2)CC1 (racemic)
IC50 [1]: 7.35 µM
IC50 [2]: 0.251 µM

More lines, now with the values ahead:

IC50 [1]: 5.57 µM
IC50 [2]: 1.44 µM
Structure (SMILES): O=C(CCCc1nc2ccccc2c(=O)[nH]1)N1CCC(c2noc3ccc(F)cc23)CC1

IC50 [1]: 1.78 µM
IC50 [2]: 0.16 µM
Structure (SMILES): COc1ccc2c(c1)[nH]c(=O)n2C1CCN(C(=O)CCCc2nc3ccccc3c(=O)[nH]2)CC1

IC50 [1]: 0.992 µM
IC50 [2]: 0.333 µM
Structure (SMILES): O=C(CCCc1nc2ccccc2c(=O)[nH]1)N1CCN(c2noc3ccccc23)CC1

IC50 [1]: 2.26 µM
IC50 [2]: 3.08 µM
Structure (SMILES): O=C(CCc1nc2ccccc2c(=O)[nH]1)N[C@H]1CC[C@H](n2c(=O)oc3ccccc32)CC1

IC50 [1]: 2.26 µM
IC50 [2]: 1.37 µM
Structure (SMILES): O=C(CCCc1nc2ccccc2c(=O)[nH]1)N1CCC(n2nnc3ccccc32)CC1
